# Data reported in ChEMBL document CHEMBL1201862, “PubChem BioAssay data set” (2004).
#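 48-hour exposure; five concentrations; linearly interpolated endpoints. GI50 marks 50% less growth.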 Activity calls are given as the source filed them. Rule as the data show it: active = GI50 up to about 1.1 µM and inactive = higher.
# Legend:
# Assay in all cases: inhibition of tumour cell growth, NCI panel, 48 h
# [1] = tested on: MOLT-4
# [2] = tested on: CAKI-1
# [3] = tested on: NCI-H226
# [4] = tested on: M14
# [5] = tested on: CCRF-CEM
# [6] = tested on: SK-MEL-28
# [7] = tested on: SK-OV-3
# [8] = tested on: HT-29
# [9] = tested on: HCC 2998
# [10] = tested on: NCI-H460
# [11] = tested on: SF-268
# [12] = tested on: SN12C
# [13] = tested on: NCI-H522
# [14] = tested on: NCI-H23
# [15] = tested on: OVCAR-3
# [16] = tested on: RXF 393
# [17] = tested on: HL-60
# [18] = tested on: UO-31
SMILES,GI50 [1],GI50 [2],GI50 [3],GI50 [4],GI50 [5],GI50 [6],GI50 [7],GI50 [8],GI50 [9],GI50 [10],GI50 [11],GI50 [12],GI50 [13],GI50 [14],GI50 [15],GI50 [16],GI50 [17],GI50 [18]
COc1c2c(c(O)c3c4c(c(C)cc13)C1OC3(C(OC)OC5CC(C)(O)C(OC6CC(C)(O)C(O)C(C)O6)C(C)O5)OC1C(OC)(O4)C31CO1)C(=O)C(O)CC2OC1CC(C)(O)C(OC(C)=O)C(C)O1 (stereo unspecified),< 0.01 µM (active),0.052 µM (active),< 0.01 µM (active),< 0.01 µM (active),< 0.01 µM (active),< 0.01 µM (active),< 0.01 µM (active),< 0.01 µM (active),< 0.01 µM (active),< 0.01 µM (active),< 0.01 µM (active),< 0.01 µM (active),< 0.01 µM (active),< 0.01 µM (active),< 0.01 µM (active),< 0.01 µM (active),< 0.01 µM (active),0.0356 µM (active)
O=C(NC1C2CC3CC(C2)CC1C3)c1cc(/C=C/c2ccccc2)nc(S)n1 (stereo unspecified),> 100 µM (inactive),> 100 µM (inactive),,> 100 µM (inactive),> 100 µM (inactive),> 100 µM (inactive),> 100 µM (inactive),,> 100 µM (inactive),> 100 µM (inactive),> 100 µM (inactive),,> 100 µM (inactive),> 100 µM (inactive),> 100 µM (inactive),> 100 µM (inactive),> 100 µM (inactive),> 100 µM (inactive)
CSC(=N)NNC(=O)CCC(=O)Nc1ccccc1C(F)(F)F,> 100 µM (inactive),> 100 µM (inactive),> 100 µM (inactive),> 100 µM (inactive),> 100 µM (inactive),> 100 µM (inactive),> 100 µM (inactive),> 100 µM (inactive),> 100 µM (inactive),> 100 µM (inactive),> 100 µM (inactive),> 100 µM (inactive),> 100 µM (inactive),> 100 µM (inactive),> 100 µM (inactive),> 100 µM (inactive),,> 100 µM (inactive)
O=C(NC1C(O)C(O)C(CO)OC1n1cc(F)c(=O)[nH]c1=O)OCc1ccccc1 (stereo unspecified),,> 100 µM (inactive),> 100 µM (inactive),> 100 µM (inactive),22.2 µM (inactive),> 100 µM (inactive),> 100 µM (inactive),> 100 µM (inactive),> 100 µM (inactive),> 100 µM (inactive),> 100 µM (inactive),> 100 µM (inactive),> 100 µM (inactive),> 100 µM (inactive),,> 100 µM (inactive),> 100 µM (inactive),
O=Cc1ccc(CCl)cc1,22.9 µM (inactive),,,14.8 µM (inactive),12.4 µM (inactive),17.5 µM (inactive),22.1 µM (inactive),16.8 µM (inactive),,18.6 µM (inactive),24 µM (inactive),,19.7 µM (inactive),> 10 µM (inactive),19.1 µM (inactive),16.9 µM (inactive),4.56 µM (inactive),16.7 µM (inactive)
NC(=O)c1coc(C2OC(CO)C(O)C2O)n1 (stereo unspecified),> 100 µM (inactive),> 10 µM (inactive),> 100 µM (inactive),> 100 µM (inactive),> 100 µM (inactive),> 100 µM (inactive),> 100 µM (inactive),> 100 µM (inactive),> 100 µM (inactive),> 100 µM (inactive),> 100 µM (inactive),> 100 µM (inactive),> 100 µM (inactive),> 100 µM (inactive),> 100 µM (inactive),,> 100 µM (inactive),> 100 µM (inactive)
